Results from US10449258B2, “Antibody drug conjugate, intermediate, preparation method, pharmaceutical composition and uses thereof” (XDCEXPLORER (SHANGHAI) CO., LTD., priority 2015, dated 2019).
Like-named read-outs stand apart in the source and are kept apart here.

Experiments:
[1] = tested on: Her2 low expression human MCF-7 breast tumor cells; experiment: Cytotoxicity assay (growth inhibition, CellTiter-Glo) on MCF-7
Description: (§1) Her2-positive human BT474 breast tumor cells (BT474 for short), Her2 low expression human MCF-7 breast tumor cells (MCF-7 for short), and human breast tumor cell strain MCF7-Her2 with stable-transfected Her2 outside MCF-7 (MCF-7-Her2 for short) were used (they were prepared by the methods disclosed in the literatures for preparing recombinant cells: Teemu T. Junttila, et al., Breast. Cancer Res. Treat., 2011, 128, 347 and Jeffrey J. Wallin et al., Clin. Cancer Res., 2012, 18, 3901, the contents of which are incorporated herein by reference in their entireties). The growth inhibition of tumor cells by T-CE-040 and T-CE-063 antibody drug conjugates were evaluated. BT474, MCF7-Her2 and MCF-7 were digested with 0.25% (v/v) trypsin and the cells were stripped and then suspended in 100 μL complete medium. 2,000 cells were inoculated in a 96-well plate and cultured, grew adherently overnight at 37° C., then 100 μL T-CE-040 and T-CE-063 antibody drug conjugates with different concentration gradients and the complete medium were added. After 120 hours, relative cell proliferation analysis was performed by adding 50 μL CellTiter-Glo® […] Cell Activation Reagent (CellTiter-GloB Luminescent, Promega).

[2] = tested on: Her2-positive human BT474 breast tumor cells; experiment: Cytotoxicity assay (growth inhibition, CellTiter-Glo) on BT474
Description: as §1

[3] = tested on: human breast tumor cell strain MCF7-Her2 with stable-transfected Her2; experiment: Cytotoxicity assay (growth inhibition, CellTiter-Glo) on MCF7-Her2
Description: as §1

[4] = Homo sapiens, MCF7, 120 h, read-out: Cytotoxicity assay IC50 MCF7, MCF-7 cells, 120 hours, CellTiter-Glo
[5] = Homo sapiens, BT-474, 120 h, read-out: Cytotoxicity assay IC50 BT474, BT474 cells, 120 hours, CellTiter-Glo
[6] = Homo sapiens, 120 h, read-out: Cytotoxicity assay IC50 MCF-Her2, MCF7-Her2 cells, 120 hours, CellTiter-Glo
[7] = read-out: Cytotoxicity assay IC50 MCF7, MCF-7 cells, 120 hours, CellTiter-Glo
[8] = read-out: Cytotoxicity assay IC50 BT474, BT474 cells, 120 hours, CellTiter-Glo
[9] = read-out: Cytotoxicity assay IC50 MCF-Her2, MCF7-Her2 cells, 120 hours, CellTiter-Glo

Row | SMILES | IC50 [1, 4] [nM] | IC50 [2, 5] [nM] | IC50 [3, 6] [nM] | IC50 [1, 7] [nM] | IC50 [2, 8] [nM] | IC50 [3, 9] [nM]
1 | COCC(S)(CCC(=O)N(C)[C@@H](C)C(=O)OC1CC(=O)N(C)c2cc(cc(OC)c2Cl)C/C(C)=C/C=C/[C@@H](OC)[C@@]2(O)C[C@H](OC(=O)N2)[C@@H](C)[C@@H]2O[C@@]12C)COC (stereo partly drawn) [CE-024] | 23.1 | 20.1 | 50 | – | – | –
2 | COc1cc2cc(c1Cl)N(C)C(=O)C[C@H](OC(=O)[C@H](C)OCCOCCOCCNC(=O)CBr)[C@]1(C)O[C@H]1[C@H](C)C1C[C@@](O)(NC(=O)O1)[C@H](OC)/C=C/C=C(\C)C2 [CE-050] | 14.4 | 26.1 | 7 | – | – | –
3 | COCC(C)(CCC(=O)N(C)[C@@H](C)C(=O)O[C@H]1CC(=O)N(C)c2cc(cc(OC)c2Cl)C/C(C)=C/C=C/[C@@H](OC)[C@@]2(O)C[C@H](OC(=O)N2)[C@@H](C)[C@@H]2O[C@@]12C)SSC (stereo partly drawn) [CE-015] | – | – | – | 3 | 6.3 | 7.1
4 | COCC(S)(CCC(=O)N(C)[C@H](C)C(=O)OC1CC(=O)N(C)c2cc(cc(OC)c2Cl)C/C(C)=C/C=C/[C@@H](OC)[C@@]2(O)C[C@H](OC(=O)N2)[C@@H](C)[C@@H]2O[C@@]12C)COC (stereo partly drawn) [CE-023] | 460 | 308 | 352 | – | – | –
5 | COc1cc2cc(c1Cl)N(C)C(=O)C[C@H](OC(=O)[C@H](C)OCCSC1CC(=O)N(C[C@H]3CC[C@H](C(=O)ON4C(=O)CCC4=O)CC3)C1=O)[C@]1(C)O[C@H]1[C@H](C)C1C[C@@](O)(NC(=O)O1)[C@H](OC)/C=C/C=C(\C)C2 (stereo partly drawn) [CE-037] | 136 | 49.3 | 70.6 | – | – | –
6 | COc1cc2cc(c1Cl)N(C)C(=O)CC(OC(=O)[C@@H](C)N(C)C(=O)CCC(C)(C#N)SSC)[C@]1(C)O[C@H]1[C@H](C)[C@@H]1C[C@@](O)(NC(=O)O1)[C@H](OC)/C=C/C=C(\C)C2 (stereo partly drawn) [CE-018] | 1570 | 41.7 | 399 | – | – | –
7 | COc1cc2cc(c1Cl)N(C)C(=O)CC(OC(=O)[C@@H](C)N(C)C(=O)CCC(SSC)C(C)C)[C@]1(C)O[C@H]1[C@H](C)[C@@H]1C[C@@](O)(NC(=O)O1)[C@H](OC)/C=C/C=C(\C)C2 (stereo partly drawn) [CE-021] | 98.6 | 63.9 | 92.9 | – | – | –
8 | COc1cc2cc(c1Cl)N(C)C(=O)C[C@H](OC(=O)C(COCCSSC)OC)[C@]1(C)O[C@H]1[C@H](C)C1C[C@@](O)(NC(=O)O1)[C@H](OC)/C=C/C=C(\C)C2 (stereo partly drawn) [CE-056] | 17 | 39 | 217 | – | – | –
9 | COc1cc2cc(c1Cl)N(C)C(=O)CC(OC(=O)[C@H](C)N(C)C(=O)CCC(SSC)C(C)C)[C@]1(C)O[C@H]1[C@H](C)[C@@H]1C[C@@](O)(NC(=O)O1)[C@H](OC)/C=C/C=C(\C)C2 (stereo partly drawn) [CE-022] | 10 | 13 | 6 | – | – | –
10 | COc1cc2cc(c1Cl)N(C)C(=O)C[C@H](OC(=O)COCCCSC1CC(=O)N(C[C@H]3CC[C@H](C(=O)ON4C(=O)CCC4=O)CC3)C1=O)[C@]1(C)O[C@H]1[C@H](C)C1C[C@@](O)(NC(=O)O1)[C@H](OC)/C=C/C=C(\C)C2 (stereo partly drawn) [CE-048] | 171 | 266 | 72.1 | – | – | –
11 | COc1cc2cc(c1Cl)N(C)C(=O)C[C@H](OC(=O)[C@H]1CC[C@H](CSSC)CC1)[C@]1(C)O[C@H]1[C@H](C)[C@@H]1C[C@@](O)(NC(=O)O1)[C@H](OC)/C=C/C=C(\C)C2 [CE-031] | 15 | 7.5 | 9.2 | – | – | –
12 | COc1cc2cc(c1Cl)N(C)C(=O)CC(OC(=O)[C@H](C)N(C)C(CCSSCCCC(=O)ON1C(=O)CCC1=O)C(F)(F)F)[C@]1(C)O[C@H]1[C@H](C)[C@@H]1C[C@@](O)(NC(=O)O1)[C@H](OC)/C=C/C=C(\C)C2 (stereo partly drawn) [CE-041] | 185 | 68.3 | 126 | – | – | –
13 | COc1cc2cc(c1Cl)N(C)C(=O)C[C@H](OC(=O)[C@H](C)OCCCSC1CC(=O)N(C[C@H]3CC[C@H](C(=O)ON4C(=O)CCC4=O)CC3)C1=O)[C@]1(C)O[C@H]1[C@H](C)C1C[C@@](O)(NC(=O)O1)[C@H](OC)/C=C/C=C(\C)C2 (stereo partly drawn) [CE-035] | – | – | – | 25.8 | 26.8 | 15.1
14 | COc1cc2cc(c1Cl)N(C)C(=O)C[C@H](OC(=O)[C@H](C)OCCSSC)[C@]1(C)O[C@H]1[C@H](C)[C@@H]1C[C@@](O)(NC(=O)O1)[C@H](OC)/C=C/C=C(\C)C2 [CE-026] | 41 | 14 | 17 | – | – | –
